Measurements as given in ChEMBL document CHEMBL4196018, “New antitumor anthra[2,3-b]furan-3-carboxamides: Synthesis and structure-activity relationship” (Eur J Med Chem, 2018).
Calls of active or inactive are those of the source. No cut-off for these calls is given here.

How the values were obtained:
HCT-116 [1] = test: Antiproliferative activity against human HCT116 cells after 72 hrs by MTT assay; type: functional, cell-based; details: HCT-116, 72 h
[2] = Resistance index, ratio of IC50 for human K562/4 cells to IC50 for human K562 cells; type: functional
[3] = Resistance index, ratio of IC50 for p53 knockout human HCT116 cells to IC50 for human HCT116 cells; type: functional
K562 [4] = test: Antiproliferative activity against human K562 cells after 72 hrs by MTT assay; type: functional, cell-based; details: K562, 72 h
HeLa = test: Antiproliferative activity against human HeLa cells after 72 hrs by MTT assay; type: functional, cell-based
L1210 = test: Antiproliferative activity against mouse L1210 cells after 48 hrs by MTT assay; type: functional, cell-based; details: L1210, 48 h
[5] = Antiproliferative activity against human K562/4 cells after 72 hrs by MTT assay; type: functional, cell-based; details: K562/4, 72 h
CCRF-CEM = test: Antiproliferative activity against human CEM cells after 72 hrs by MTT assay; type: functional, cell-based
HCT-116 [6] = test: Antiproliferative activity against p53 knockout human HCT116 cells after 72 hrs by MTT assay; type: functional, cell-based; details: HCT-116, 72 h
[7] = target: T1, DNA topoisomerase 1 (Homo sapiens) (UniProt P11387); test: Inhibition of human topoisomerase-1 at 1 to 30 uM using supercoiled pBR322 DNA as substrate after 30 mins by agarose gel electrophoresis method
T1 sequence (whole entry): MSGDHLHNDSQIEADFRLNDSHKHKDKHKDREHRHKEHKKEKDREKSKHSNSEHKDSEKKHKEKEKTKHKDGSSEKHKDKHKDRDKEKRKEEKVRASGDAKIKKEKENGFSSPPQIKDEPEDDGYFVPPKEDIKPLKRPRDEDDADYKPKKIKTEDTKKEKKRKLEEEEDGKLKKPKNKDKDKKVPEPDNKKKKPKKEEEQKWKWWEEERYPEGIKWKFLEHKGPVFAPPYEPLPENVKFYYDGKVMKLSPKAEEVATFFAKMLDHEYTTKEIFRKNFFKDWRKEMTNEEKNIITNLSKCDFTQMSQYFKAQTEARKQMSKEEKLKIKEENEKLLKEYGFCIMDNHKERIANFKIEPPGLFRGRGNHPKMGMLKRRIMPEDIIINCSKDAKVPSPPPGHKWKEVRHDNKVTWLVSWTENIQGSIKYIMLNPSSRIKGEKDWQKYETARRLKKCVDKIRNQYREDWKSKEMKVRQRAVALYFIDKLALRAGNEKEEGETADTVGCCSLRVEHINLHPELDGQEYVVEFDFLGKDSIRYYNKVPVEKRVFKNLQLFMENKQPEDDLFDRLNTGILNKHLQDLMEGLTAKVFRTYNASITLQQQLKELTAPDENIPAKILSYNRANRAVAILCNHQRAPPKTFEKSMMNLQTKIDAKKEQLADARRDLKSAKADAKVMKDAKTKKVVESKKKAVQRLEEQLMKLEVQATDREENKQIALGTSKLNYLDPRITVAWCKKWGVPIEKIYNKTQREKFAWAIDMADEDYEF

[8] = Substrate activity at P-gp in human K562/4 cells assessed as test compound accumulation at 2 uM after 1 to 24 hrs by flow cytometry; type: ADME, cell-based
K562 [9] = test: Cell cycle arrest in human K562 cells at 1 uM up to 48 hrs by propidium iodide staining based flow cytometry; type: functional
[10] = Drug uptake in human K562 cells at 2 uM after 1 to 24 hrs by flow cytometry; type: ADME, cell-based; details: k562, 2 µM
Homo sapiens = organism: Homo sapiens; test: Cell cycle arrest in human K562/4 cells at 1 uM up to 48 hrs by propidium iodide staining based flow cytometry; type: functional
TMK-1 [11] = test: Induction of apoptosis in human TMK1 cells after 24 hrs by Annexin V-FITC staining based flow cytometry; type: functional, cell-based
MKN-45 [12] = test: Induction of apoptosis in human MKN45 cells after 24 hrs by Annexin V-FITC staining based flow cytometry; type: functional, cell-based
MKN-45 [13] = test: Induction of apoptosis in human MKN45 cells at 1 uM after 24 hrs by Annexin V-FITC staining based flow cytometry relative to control; type: functional
TMK-1 [14] = test: Induction of ROS generation in human TMK1 cells at 0.1 to 1 uM after 30 mins by H2DCFDA staining based flow cytometry; type: functional, cell-based
TMK-1 [15] = test: Induction of apoptosis in human TMK1 cells at 1 uM after 24 hrs by Annexin V-FITC staining based flow cytometry relative to control; type: functional
MKN-45 [16] = test: Induction of ROS generation in human MKN45 cells at 0.1 to 1 uM after 30 mins by H2DCFDA staining based flow cytometry; type: functional, cell-based
[17] = Substrate activity at P-gp in human K562/4 cells assessed as test compound accumulation at 1 uM after 1 to 24 hrs by flow cytometry; type: ADME, cell-based
[18] = Substrate activity at P-gp in human K562/4 cells assessed as test compound accumulation at 2 uM after 1 to 24 hrs in presence of P-gp inhibitor tariquidar by flow cytometry; type: ADME, cell-based
[19] = target: T1, DNA topoisomerase 1 (Homo sapiens); test: Inhibition of human topoisomerase-1 using supercoiled pBR322 DNA as substrate after 30 mins by agarose gel electrophoresis method
Lymphocyte = test: Cytotoxicity against human lymphocytes assessed as reduction in cell viability at 25 uM after 72 hrs by MTT assay; type: cell-based

SMILES | IC50 (HCT-116 [1]) [µM] | IC50 (K562 [4]) [nM] | IC50 (HeLa) [nM] | IC50 (L1210) [nM] | IC50 (CCRF-CEM) [µM] | IC50 (HCT-116 [6]) [µM] | Ratio IC50 [2] | Ratio IC50 [3] | IC50 [5] [µM] | further results
O=C1c2ccccc2C(=O)c2c1c(O)c1occ(C(=O)NC3CCNCC3)c1c2O | 4.2 | 1100 | 1100 | 900 | 0.8 | 4 | 2.3 | 1 | 2.5 | –
Cc1oc2c(Cl)c3c(c(Cl)c2c1C(=O)N1CC[C@H](N)C1)C(=O)c1ccccc1C3=O | 4.5 | 3800 | 5000 | 1500 | 3.5 | 4 | 1.4 | 0.9 | 5.3 | –
CN[C@H]1CCN(C(=O)c2coc3c(O)c4c(c(O)c23)C(=O)c2ccccc2C4=O)C1 | 5.9 | 2900 | 5000 | 3500 | 4.6 | 5.8 | 1.9 | 1 | 5.3 | –
Cc1oc2c(O)c3c(c(O)c2c1C(=O)N1CC[C@H](N)C1)C(=O)c1ccccc1C3=O | 1.2 | 900 | 700 | 600 | 0.5 | 1.3 | 1.5 | 1.1 | 1.4 | Activity (TMK-1 [11]): Dose-dependent effect; Activity (MKN-45 [12]): Dose-dependent effect; inhibition [7]: Active; Activity (MKN-45 [13]): 60 - 90%; Activity (TMK-1 [14]): Active; Activity (TMK-1 [15]): 60 - 90%; Activity (MKN-45 [16]): Active
COc1cc2c(cc1OC)CN(CCc1ccc(NC(=O)c3cc(OC)c(OC)cc3NC(=O)c3cnc4ccccc4c3)cc1)CC2 | – | – | – | – | – | – | – | – | – | Activity [17]: Not Active
COc1cccc2c1C(=O)c1c(O)c3c(c(O)c1C2=O)C[C@@](O)(C(=O)CO)C[C@@H]3O[C@H]1C[C@H](N)[C@H](O)[C@H](C)O1 [DOXORUBICIN] | – | – | – | – | – | – | – | – | 9.8 | Activity [8]: Active; Drug uptake [10]: Active; Activity [18]: Not Active
N[C@H]1CCN(C(=O)c2coc3c(O)c4c(c(O)c23)C(=O)c2ccccc2C4=O)C1 | 2.8 | 1100 | 1000 | 700 | 1.3 | 3.4 | 1.3 | 1.2 | 1.5 | Activity (TMK-1 [11]): Dose-dependent effect; Activity (MKN-45 [12]): Dose-dependent effect; inhibition [19]: Dose-dependent effect; Activity (MKN-45 [13]): 60 - 90%; Activity (Lymphocyte): Non-Toxic; Activity [8]: Not Active; Drug uptake [10]: Active; Activity (TMK-1 [14]): Active; Activity (TMK-1 [15]): 60 - 90%; Activity (MKN-45 [16]): Active
NC1CCCN(C(=O)c2coc3c(O)c4c(c(O)c23)C(=O)c2ccccc2C4=O)C1 (racemic) | 3 | 1300 | 2300 | 2000 | 4 | 2.5 | 2 | 0.8 | 2.6 | –
N[C@@H]1CCN(C(=O)c2coc3c(O)c4c(c(O)c23)C(=O)c2ccccc2C4=O)C1 | 5 | 2300 | 3300 | 2500 | 4 | 5.1 | 1.6 | 1 | 3.7 | inhibition [19]: Dose-dependent effect

Continued by falling IC50 (HCT-116 [1]), values first:

IC50 (HCT-116 [1]) [µM] | IC50 (K562 [4]) [nM] | IC50 (HeLa) [nM] | IC50 (L1210) [nM] | IC50 (CCRF-CEM) [µM] | IC50 (HCT-116 [6]) [µM] | SMILES | Ratio IC50 [2] | Ratio IC50 [3] | IC50 [5] [µM] | further results
41 | 28600 | 27900 | 20000 | 23.2 | 50 | COc1c2c(c(OC)c3c(C(=O)N4CC[C@H](N)C4)c(C)oc13)C(=O)c1ccccc1C2=O | 1.4 | 1.2 | 38.7 | –
7.6 | 9200 | 3700 | 3100 | 4 | 5.4 | Cc1oc2c(N)c3c(c(N)c2c1C(=O)N1CC[C@H](N)C1)C(=O)c1ccccc1C3=O | 0.9 | 0.7 | 8.3 | –
6 | 2300 | 4200 | 2400 | 4 | 10 | NC1CCN(C(=O)c2coc3c(O)c4c(c(O)c23)C(=O)c2ccccc2C4=O)CC1 | 4.2 | 1.7 | 9.6 | –
5.3 | 3600 | 4400 | 1700 | 4 | 4.6 | N[C@H]1CCN(C(=O)c2c(C(F)(F)F)oc3c(O)c4c(c(O)c23)C(=O)c2ccccc2C4=O)C1 | 0.6 | 0.9 | 2.2 | inhibition [7]: inactive; Activity [8]: Not Active; Activity (K562 [9]): Active; Drug uptake [10]: Active; Activity (Homo sapiens): Active
3.2 | 1300 | 2300 | 4400 | 3.9 | 2.4 | Cc1oc2c(O)c3c(c(O)c2c1CN1CC[C@H](N)C1)C(=O)c1ccccc1C3=O | 1.4 | 0.8 | 1.8 | –
2.2 | 1200 | 2800 | 4300 | 4.3 | 2.2 | Cc1oc2c(O)c3c(c(O)c2c1CN1CC[C@@H](N)C1)C(=O)c1ccccc1C3=O | 1.6 | 1 | 1.9 | –
0.8 | 900 | 2000 | 1000 | 1 | 1 | O=C1c2ccccc2C(=O)c2c1c(O)c1occ(C(=O)NC3CCNC3)c1c2O (racemic) | 5 | 1.3 | 4.5 | –
0.8 | 1100 | 2200 | 2000 | 3.2 | 0.8 | CN1CCN(NC(=O)c2coc3c(O)c4c(c(O)c23)C(=O)c2ccccc2C4=O)CC1 | 1.4 | 1 | 1.5 | –
